Assay results: US12180193B2, “Accelerating fibrosarcoma protein degrading compounds and associated methods of use” (Arvinas Operations, Inc., priority 2020, dated 2024)

Experiments:
BRAF G466V = target: T1, BRAF G466V (Homo sapiens, UniProt P15056, G466V); test: Cellular assay of target protein degradation, T-Rex 293 cells stably transfected with HA-BRAF G466V (HA immunofluorescence, high content imaging); assay type: cell-based; settings: T-Rex 293 HA-BRAF G466V; for DC50: half maximal degradation, read-out: BRaf G466V DC50; for Dmax: maximum degradation observed
T1 construct: expressed in transfected cells
T1 sequence (P15056 whole entry G466V): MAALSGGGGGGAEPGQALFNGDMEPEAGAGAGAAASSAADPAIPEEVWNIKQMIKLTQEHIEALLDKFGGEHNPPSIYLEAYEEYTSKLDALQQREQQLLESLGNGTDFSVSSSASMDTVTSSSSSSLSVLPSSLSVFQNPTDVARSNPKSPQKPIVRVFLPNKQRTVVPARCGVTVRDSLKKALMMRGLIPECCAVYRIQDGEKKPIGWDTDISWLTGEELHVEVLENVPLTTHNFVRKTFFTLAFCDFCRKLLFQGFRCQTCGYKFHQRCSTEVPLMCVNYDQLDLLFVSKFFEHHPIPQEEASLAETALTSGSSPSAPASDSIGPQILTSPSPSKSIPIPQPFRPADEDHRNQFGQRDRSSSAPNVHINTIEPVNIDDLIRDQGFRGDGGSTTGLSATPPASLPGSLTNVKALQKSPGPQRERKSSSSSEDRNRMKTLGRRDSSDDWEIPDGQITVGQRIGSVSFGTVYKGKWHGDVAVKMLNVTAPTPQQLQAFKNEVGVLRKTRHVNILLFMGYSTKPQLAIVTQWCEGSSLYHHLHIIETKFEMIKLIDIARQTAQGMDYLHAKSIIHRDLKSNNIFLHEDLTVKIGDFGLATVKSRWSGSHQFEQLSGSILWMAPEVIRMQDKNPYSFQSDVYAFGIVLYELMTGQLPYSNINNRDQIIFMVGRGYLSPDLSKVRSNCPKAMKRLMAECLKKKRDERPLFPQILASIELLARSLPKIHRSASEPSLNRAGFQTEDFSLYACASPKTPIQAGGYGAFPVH
In short: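 Cells expressing doxycycline-induced (0.75 ng/mL) HA-BRAF G466V were treated with compound at 30 nM to 3 pM in 0.1% DMSO for 24 hours at 37° C. After fixation and permeabilization, HA was immunostained and quantified by high content imaging to derive DC50 and Dmax.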

BRAF V600E = target: T2, BRAF V600E (Homo sapiens, UniProt P15056, V600E); test: Cellular assay of target protein degradation, T-Rex 293 cells stably transfected with HA-BRAF_V600E (HA immunofluorescence, high content imaging); assay type: cell-based; settings: T-Rex 293 HA-BRAF V600E; for DC50: half maximal degradation, read-out: BRaf V600E DC50; for Dmax: maximum degradation observed
T2 construct: expressed in transfected cells
T2 sequence (P15056 whole entry V600E): as the sequence (P15056 whole entry G466V) above, with V466G, V600E counted along it
In short: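 Doxycycline-induced (1 ng/mL) cells were treated 24 h at 37 °C with compound at 1 μM to 0.1 nM final in 0.1% DMSO. After fixation, permeabilization and blocking, anti-HA staining was imaged by high-content reading; DC50 and Dmax (% of control) were derived.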

| DC50 (BRAF G466V) [nM] | Dmax (BRAF G466V) [%] | DC50 (BRAF V600E) [nM] | Dmax (BRAF V600E) [%] | Structure (SMILES) |
| --- | --- | --- | --- | --- |
| 1 to 10 | > 70 | 5 to 50 | < 35 | O=C1CCC(N2Cc3cc(C4CCN(CC5CN(c6ccc(-c7cnc8[nH]cc(C(=O)c9c(F)ccc(NS(=O)(=O)N%10CC[C@@H](F)C%10)c9F)c8c7)cc6)C5)CC4)ccc3C2=O)C(=O)N1 (stereo partly drawn) [Compound 198, (3R)-N-[3-(5-{4-[3-({4-[2-(2,6-dioxopiperidin-3-yl)-1-oxo-2,3-dihydro-1H-isoindol-5-yl]piperidin-1-yl}methyl)azetidin-1-yl]phenyl}-1H-pyrrolo[2,3-b]pyridine-3-carbonyl)-2,4-difluorophenyl]-3-fluoropyrrolidine-1-sulfonamide] |
| 1 to 10 | 35 to 70 | 5 to 50 | 35 to 70 | O=C1CCN(c2ccc(C3CCN(CCC4CCN(c5ccc(-c6cnc7[nH]cc(C(=O)c8c(F)ccc(NS(=O)(=O)N9CC[C@@H](F)C9)c8F)c7c6)cc5)CC4)CC3)cc2F)C(=O)N1 [Compound 199, (3R)-N-[3-(5-[4-[4-(2-[4-[4-(2,4-dioxo-1,3-diazinan-1-yl)-3-fluorophenyl]piperidin-1-yl]ethyl)piperidin-1-yl]phenyl]-1H-pyrrolo[2,3-b]pyridine-3-carbonyl)-2,4-difluorophenyl]-3-fluoropyrrolidine-1-sulfonamide] |
| 1 to 10 | 35 to 70 | 50 to 500 | 35 to 70 | O=C1CCC(N2Cc3cc(N4CC(CN5CCN(C6(c7ccc(-c8cnc9[nH]cc(C(=O)c%10c(F)ccc(NS(=O)(=O)N%11CC[C@@H](F)C%11)c%10F)c9c8)cc7)CC6)CC5)C4)ccc3C2=O)C(=O)N1 (stereo partly drawn) [Compound 200, (3R)-N-{3-[5-(4-{1-[4-({1-[2-(2,6-dioxopiperidin-3-yl)-1-oxo-2,3-dihydro-1H-isoindol-5-yl]azetidin-3-yl}methyl)piperazin-1-yl]cyclopropyl}phenyl)-1H-pyrrolo[2,3-b]pyridine-3-carbonyl]-2,4-difluorophenyl}-3-fluoropyrrolidine-1-sulfonamide] |
| 1 to 10 | 35 to 70 | 5 to 50 | < 35 | O=C1CC[C@H](N2Cc3cc(N4CCC(CN5CCN(C6(c7ncc(-c8cnc9[nH]cc(C(=O)c%10c(F)ccc(NS(=O)(=O)N%11CC[C@@H](F)C%11)c%10F)c9c8)cn7)CC6)CC5)CC4)ccc3C2=O)C(=O)N1 [Compound 201, (3R)-N-[3-[5-[2-[1-[4-[[1-[2-[(3S)-2,6-dioxo-3-piperidyl]-1-oxo-isoindolin-5-yl]-4-piperidyl]methyl]piperazin-1-yl]cyclopropyl]pyrimidin-5-yl]-1H-pyrrolo[2,3-b]pyridine-3-carbonyl]-2,4-difluoro-phenyl]-3-fluoro-pyrrolidine-1-sulfonamide] |
| 1 to 10 | 35 to 70 | 50 to 500 | 35 to 70 | O=C1CC[C@H](N2Cc3cc(N4CC(CN5CCN(C6(c7ncc(-c8cnc9[nH]cc(C(=O)c%10c(F)ccc(NS(=O)(=O)N%11CC[C@@H](F)C%11)c%10F)c9c8)cn7)CC6)CC5)C4)ccc3C2=O)C(=O)N1 [Compound 202, (3R)-N-(3-{5-[2-(1-{4-[(1-{2-[(3S)-2,6-dioxopiperidin-3-yl]-1-oxo-2,3-dihydro-1H-isoindol-5-yl}azetidin-3-yl)methyl]piperazin-1-yl}cyclopropyl)pyrimidin-5-yl]-1H-pyrrolo[2,3-b]pyridine-3-carbonyl}-2,4-difluorophenyl)-3-fluoropyrrolidine-1-sulfonamide] |
| < 1 | 35 to 70 | < 5 | 35 to 70 | CCc1c(NS(=O)(=O)N2CC[C@@H](F)C2)ccc(F)c1C(=O)c1c[nH]c2ncc(-c3ccc(N4CCC(CN5CCC(c6ccc7c(c6)CN([C@H]6CCC(=O)NC6=O)C7=O)CC5)CC4)cc3)cc12 [Compound 203, (3R)—N-{3-[5-(4-{4-[(4-{2-[(3S)-2,6-dioxopiperidin-3-yl]-1-oxo-2,3-dihydro-1H-isoindol-5-yl}piperidin-1-yl)methyl]piperidin-1-yl}phenyl)-1H-pyrrolo[2,3-b]pyridine-3-carbonyl]-2-ethyl-4-fluorophenyl}-3-fluoropyrrolidine-1-sulfonamide] |
| < 1 | 35 to 70 | < 5 | 35 to 70 | CC(C)CS(=O)(=O)Nc1ccc(F)c(C(=O)c2c[nH]c3ncc(-c4ccc(N5CCC(CN6CCC(c7ccc8c(c7)CN([C@H]7CCC(=O)NC7=O)C8=O)CC6)CC5)cc4)cc23)c1F [Compound 204, N-{3-[5-(4-{4-[(4-{2-[(3S)-2,6-dioxopiperidin-3-yl]-1-oxo-2,3-dihydro-1H-isoindol-5-yl}piperidin-1-yl)methyl]piperidin-1-yl}phenyl)-1H-pyrrolo[2,3-b]pyridine-3-carbonyl]-2,4-difluorophenyl}-2-methylpropane-1-sulfonamide] |
| < 1 | 35 to 70 | 5 to 50 | 35 to 70 | N#Cc1cc(-c2cnc3[nH]cc(C(=O)c4c(F)ccc(NS(=O)(=O)N5CC[C@@H](F)C5)c4F)c3c2)ccc1N1CCC(CN2CCC(c3ccc4c(c3)CN([C@H]3CCC(=O)NC3=O)C4=O)CC2)CC1 [Compound 205, (3R)—N-{3-[5-(3-cyano-4-{4-[(4-{2-[(3S)-2,6-dioxopiperidin-3-yl]-1-oxo-2,3-dihydro-1H-isoindol-5-yl}piperidin-1-yl)methyl]piperidin-1-yl}phenyl)-1H-pyrrolo[2,3-b]pyridine-3-carbonyl]-2,4-difluorophenyl}-3-fluoropyrrolidine-1-sulfonamide] |
| < 1 | 35 to 70 | 5 to 50 | 35 to 70 | O=C1CC[C@H](N2Cc3cc(C4CCN(CC5CCN(c6ccc(-c7cnc8[nH]cc(C(=O)c9c(F)ccc(NS(=O)(=O)CC%10CC%10)c9F)c8c7)cc6)CC5)CC4)ccc3C2=O)C(=O)N1 [Compound 206, 1-cyclopropyl-N-{3-[5-(4-{4-[(4-{2-[(3S)-2,6-dioxopiperidin-3-yl]-1-oxo-2,3-dihydro-1H-isoindol-5-yl}piperidin-1-yl)methyl]piperidin-1-yl}phenyl)-1H-pyrrolo[2,3-b]pyridine-3-carbonyl]-2,4-difluorophenyl}methanesulfonamide] |
| < 1 | 35 to 70 | 5 to 50 | 35 to 70 | COc1c(NS(=O)(=O)N2CC[C@@H](F)C2)ccc(F)c1C(=O)c1c[nH]c2ncc(-c3ccc(N4CCC(CN5CCC(c6ccc7c(c6)CN([C@H]6CCC(=O)NC6=O)C7=O)CC5)CC4)cc3)cc12 [Compound 207, (3R)—N-{3-[5-(4-{4-[(4-{2-[(3S)-2,6-dioxopiperidin-3-yl]-1-oxo-2,3-dihydro-1H-isoindol-5-yl}piperidin-1-yl)methyl]piperidin-1-yl}phenyl)-1H-pyrrolo[2,3-b]pyridine-3-carbonyl]-4-fluoro-2-methoxyphenyl}-3-fluoropyrrolidine-1-sulfonamide] |
| < 1 | 35 to 70 | 5 to 50 | 35 to 70 | CC(C)N(C)S(=O)(=O)Nc1ccc(F)c(C(=O)c2c[nH]c3ncc(-c4ccc(N5CCC(CN6CCC(c7ccc8c(c7)CN([C@H]7CCC(=O)NC7=O)C8=O)CC6)CC5)cc4)cc23)c1F [Compound 208, (3S)-3-(5-{1-[(1-{4-[3-(2,6-difluoro-3-{[methyl(propan-2-yl)sulfamoyl]amino}benzoyl)-1H-pyrrolo[2,3-b]pyridin-5-yl]phenyl}piperidin-4-yl)methyl]piperidin-4-yl}-1-oxo-2,3-dihydro-1H-isoindol-2-yl)piperidine-2,6-dione] |
| 1 to 10 | 35 to 70 | 5 to 50 | < 35 | O=C1CCC(N2Cc3cc(N4CC(CN5CCN(C6CCN(c7ccc(-c8cnc9[nH]cc(C(=O)c%10c(F)ccc(NS(=O)(=O)N%11CC[C@@H](F)C%11)c%10F)c9c8)cc7)CC6)CC5)C4)ccc3C2=O)C(=O)N1 (stereo partly drawn) [Compound 209, (3R)—N-{3-[5-(4-{4-[4-({1-[2-(2,6-dioxopiperidin-3-yl)-1-oxo-2,3-dihydro-1H-isoindol-5-yl]azetidin-3-yl}methyl)piperazin-1-yl]piperidin-1-yl}phenyl)-1H-pyrrolo[2,3-b]pyridine-3-carbonyl]-2,4-difluorophenyl}-3-fluoropyrrolidine-1-sulfonamide] |
| 1 to 10 | > 70 | 5 to 50 | 35 to 70 | CNc1cc(-c2cnc3[nH]cc(C(=O)c4c(F)ccc(NS(=O)(=O)N5CC[C@@H](F)C5)c4F)c3c2)ccc1N1CCC(CN2CCC(c3ccc4c(c3)CN([C@H]3CCC(=O)NC3=O)C4=O)CC2)CC1 [Compound 210, (3R)—N-{3-[5-(4-{4-[(4-{2-[(3S)-2,6-dioxopiperidin-3-yl]-1-oxo-2,3-dihydro-1H-isoindol-5-yl}piperidin-1-yl)methyl]piperidin-1-yl}-3-(methylamino)phenyl)-1H-pyrrolo[2,3-b]pyridine-3-carbonyl]-2,4-difluorophenyl}-3-fluoropyrrolidine-1-sulfonamide] |
| 1 to 10 | 35 to 70 | 5 to 50 | 35 to 70 | C[C@H]1CCCN1S(=O)(=O)Nc1ccc(F)c(C(=O)c2c[nH]c3ncc(-c4ccc(N5CCC(CN6CCC(c7ccc8c(c7)CN([C@H]7CCC(=O)NC7=O)C8=O)CC6)CC5)cc4)cc23)c1F [Compound 211, (2S)—N-{3-[5-(4-{4-[(4-{2-[(3S)-2,6-dioxopiperidin-3-yl]-1-oxo-2,3-dihydro-1H-isoindol-5-yl}piperidin-1-yl)methyl]piperidin-1-yl}phenyl)-1H-pyrrolo[2,3-b]pyridine-3-carbonyl]-2,4-difluorophenyl}-2-methylpyrrolidine-1-sulfonamide] |
